Here are results for 5 compounds from patent publication US12227495B2, “Herbicidal compounds” (SYNGENTA CROP PROTECTION AG, priority 2018, dated 2025).

Format in all cases: in vivo
Experiment [1] deals with Ipomoea hederacea (IPOHE). Nature of the experiment: Post-emergence herbicide test, glasshouse, percentage damage. The conditions noted are these: 1000 g/ha, evaluated after 13 days. Put shortly: (§1)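 Percentage damage, recorded 13 days after treatment, is given as a five-point score (1=0-20%, 2=21-40%, 3=41-60%, 4=61-80%, 5=81-100%). Plants grown in soil pots under 24/16 °C, 14 h light and 65% humidity received a 500 g/ha spray (unless stated otherwise).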

Experiment [2] concerns Lolium perenne (LOLPE). Described as above. The conditions noted are these: 1000 g/ha, evaluated after 13 days. The gist of the method:
as §1

For experiment [3], the system named is Setaria faberi (SETFA). The description is as above. The conditions noted are these: 1000 g/ha, evaluated after 13 days. The gist of the method: as §1
Experiment [4] relates to Amaranthus retoflexus (AMARE). Described as above. To be noted: 1000 g/ha, evaluated after 13 days. The gist of the method: as §1
The test system of experiment [5] is Echinochloa crus-galli (ECHCG). The description is as above. The conditions noted are these: 1000 g/ha, evaluated after 13 days. The gist of the method: as §1
Experiment [6] deals with Solanum nigrum (SOLNI). Described as above. The conditions noted are these: 1000 g/ha, evaluated after 13 days. Put shortly: as §1
Experiment [7] deals with Ipomoea hederacea (IPOHE). Kind of experiment: Pre-emergence herbicide test, glasshouse, percentage damage. The conditions noted are these: rate 1000 g/ha, evaluated after 13 days. Put shortly: as §1
Experiment [8] has as its system Lolium perenne (LOLPE). The experiment is described as above. The conditions noted are these: rate 1000 g/ha, evaluated after 13 days. The gist of the method: as §1
Experiment [9] deals with Setaria faberi (SETFA). Described as above. The conditions noted are these: rate 1000 g/ha, evaluated after 13 days. The gist of the method: as §1
The subject of experiment [10] is Amaranthus retoflexus (AMARE). The description is as above. The conditions noted are these: rate 1000 g/ha, evaluated after 13 days. The gist of the method:
as §1

The test system of experiment [11] is Echinochloa crus-galli (ECHCG). Described as above. To be noted: rate 1000 g/ha, evaluated after 13 days. The gist of the method: as §1
The test system of experiment [12] is Solanum nigrum (SOLNI). The experiment is described as above. The conditions noted are these: rate 1000 g/ha, evaluated after 13 days. The gist of the method:
as §1

As for `O=[N+]([O-])c1cccc(Oc2ncc(Cl)cc2F)c1-n1cc(C(F)(F)F)cn1` [Compound A46], the “percentage damage caused to the plant, IPOHE” value in [1] is reported as 2 (2=21-40%). The “percentage damage caused to the plant, LOLPE” value in the experiment on Lolium perenne (LOLPE) [2] is listed as 3 (3=41-60%). In addition, the “percentage damage caused to the plant, SETFA” value with Setaria faberi (SETFA) [3] is listed as 4 (4=61-80%). Also, the “percentage damage caused to the plant, AMARE” value in experiment [4] was 5 (5=81-100%). For the same compound, in experiment [5], the “percentage damage caused to the plant, ECHCG” value is given as 3 (3=41-60%). Further, the “percentage damage caused to the plant, SOLNI” value in the experiment on Solanum nigrum (SOLNI) [6] is recorded as 5 (5=81-100%). Also, the “Pre-emergence Test IPOHE percentage damage (five point scale)” value in experiment [7] is reported as 1 (1=0-20%). Besides, the “Pre-emergence Test LOLPE percentage damage (five point scale)” value with Lolium perenne (LOLPE) [8] is listed as 1 (1=0-20%). Also, in the experiment on Setaria faberi (SETFA) [9], the “Pre-emergence Test SETFA percentage damage (five point scale)” value is 5 (5=81-100%). Further, the “Pre-emergence Test AMARE percentage damage (five point scale)” value in [10] is recorded as 4 (4=61-80%). Further, the “Pre-emergence Test ECHCG percentage damage (five point scale)” value in experiment [11] is reported as 4 (4=61-80%). In addition, in the experiment with Solanum nigrum (SOLNI) [12], the “Pre-emergence Test SOLNI percentage damage (five point scale)” value is 1 (1=0-20%).

On to `Fc1cccc(Oc2cccc(C(F)(F)F)n2)c1-c1cc(C(F)F)no1` [Compound A47], for which the “percentage damage caused to the plant, IPOHE” value in experiment [1] is 1 (1=0-20%). For the same compound, in the experiment on Lolium perenne (LOLPE) [2], the “percentage damage caused to the plant, LOLPE” value is 1 (1=0-20%). Moreover, in the experiment with Setaria faberi (SETFA) [3], the “percentage damage caused to the plant, SETFA” value is reported as 1 (1=0-20%). The “percentage damage caused to the plant, AMARE” value in [4] is given as 3 (3=41-60%). In addition, the “percentage damage caused to the plant, ECHCG” value in [5] was 1 (1=0-20%). Moreover, in the experiment on Solanum nigrum (SOLNI) [6], the “percentage damage caused to the plant, SOLNI” value is given as 3 (3=41-60%). In addition, in experiment [7], the “Pre-emergence Test IPOHE percentage damage (five point scale)” value is recorded as 1 (1=0-20%). In the experiment on Lolium perenne (LOLPE) [8], the “Pre-emergence Test LOLPE percentage damage (five point scale)” value was 1 (1=0-20%). Also, the “Pre-emergence Test SETFA percentage damage (five point scale)” value in the experiment with Setaria faberi (SETFA) [9] was 1 (1=0-20%). In [10], the “Pre-emergence Test AMARE percentage damage (five point scale)” value is on record as 1 (1=0-20%). Also, in experiment [11], the “Pre-emergence Test ECHCG percentage damage (five point scale)” value is 1 (1=0-20%). Further, the “Pre-emergence Test SOLNI percentage damage (five point scale)” value in the experiment with Solanum nigrum (SOLNI) [12] is listed as 1 (1=0-20%).

`Fc1cccc(Oc2cccc(OC(F)F)n2)c1-c1cc(C(F)F)no1` [Compound A48]: the “percentage damage caused to the plant, IPOHE” value in [1] is recorded as 2 (2=21-40%). The “percentage damage caused to the plant, LOLPE” value with Lolium perenne (LOLPE) [2] is 1 (1=0-20%). Moreover, the “percentage damage caused to the plant, SETFA” value with Setaria faberi (SETFA) [3] is on record as 2 (2=21-40%). For the same compound, the “percentage damage caused to the plant, AMARE” value in experiment [4] is listed as 5 (5=81-100%). Further, in experiment [5], the “percentage damage caused to the plant, ECHCG” value is 1 (1=0-20%). Further, the “percentage damage caused to the plant, SOLNI” value in the experiment with Solanum nigrum (SOLNI) [6] is listed as 5 (5=81-100%). In addition, in experiment [7], the “Pre-emergence Test IPOHE percentage damage (five point scale)” value is 1 (1=0-20%). For the same compound, the “Pre-emergence Test LOLPE percentage damage (five point scale)” value with Lolium perenne (LOLPE) [8] is 1 (1=0-20%). Besides, the “Pre-emergence Test SETFA percentage damage (five point scale)” value in the experiment with Setaria faberi (SETFA) [9] was 1 (1=0-20%). In [10], the “Pre-emergence Test AMARE percentage damage (five point scale)” value is 1 (1=0-20%). The “Pre-emergence Test ECHCG percentage damage (five point scale)” value in experiment [11] is 1 (1=0-20%). For the same compound, in the experiment with Solanum nigrum (SOLNI) [12], the “Pre-emergence Test SOLNI percentage damage (five point scale)” value is listed as 1 (1=0-20%).

Consider `N#Cc1cccnc1Oc1cccc(F)c1-c1cc(C(F)F)no1` [Compound A49], for which the “percentage damage caused to the plant, IPOHE” value in experiment [1] is 3 (3=41-60%). The “percentage damage caused to the plant, LOLPE” value in the experiment with Lolium perenne (LOLPE) [2] was 1 (1=0-20%). Moreover, in the experiment on Setaria faberi (SETFA) [3], the “percentage damage caused to the plant, SETFA” value was 2 (2=21-40%). Moreover, in experiment [4], the “percentage damage caused to the plant, AMARE” value is 5 (5=81-100%). In addition, the “percentage damage caused to the plant, ECHCG” value in experiment [5] is reported as 3 (3=41-60%). The “percentage damage caused to the plant, SOLNI” value in the experiment on Solanum nigrum (SOLNI) [6] is reported as 5 (5=81-100%). Further, in [7], the “Pre-emergence Test IPOHE percentage damage (five point scale)” value is 1 (1=0-20%). For the same compound, the “Pre-emergence Test LOLPE percentage damage (five point scale)” value with Lolium perenne (LOLPE) [8] is reported as 1 (1=0-20%). Besides, the “Pre-emergence Test SETFA percentage damage (five point scale)” value in the experiment with Setaria faberi (SETFA) [9] is listed as 5 (5=81-100%). Also, in experiment [10], the “Pre-emergence Test AMARE percentage damage (five point scale)” value is on record as 5 (5=81-100%). Also, in experiment [11], the “Pre-emergence Test ECHCG percentage damage (five point scale)” value is 3 (3=41-60%). Also, the “Pre-emergence Test SOLNI percentage damage (five point scale)” value in the experiment with Solanum nigrum (SOLNI) [12] is given as 5 (5=81-100%).

Take `Fc1ccc(Oc2cccc(F)c2-c2cc(C(F)F)no2)nc1F` [Compound A50]: in experiment [1], the “percentage damage caused to the plant, IPOHE” value is listed as 1 (1=0-20%). The “percentage damage caused to the plant, LOLPE” value in the experiment on Lolium perenne (LOLPE) [2] was 1 (1=0-20%). The “percentage damage caused to the plant, SETFA” value in the experiment on Setaria faberi (SETFA) [3] was 3 (3=41-60%). In [4], the “percentage damage caused to the plant, AMARE” value is given as 3 (3=41-60%). Also, in [5], the “percentage damage caused to the plant, ECHCG” value is 2 (2=21-40%). Also, the “percentage damage caused to the plant, SOLNI” value in the experiment with Solanum nigrum (SOLNI) [6] is 5 (5=81-100%). Besides, the “Pre-emergence Test IPOHE percentage damage (five point scale)” value in [7] is listed as 1 (1=0-20%). The “Pre-emergence Test LOLPE percentage damage (five point scale)” value in the experiment with Lolium perenne (LOLPE) [8] is 1 (1=0-20%). Also, the “Pre-emergence Test SETFA percentage damage (five point scale)” value in the experiment on Setaria faberi (SETFA) [9] was 4 (4=61-80%). The “Pre-emergence Test AMARE percentage damage (five point scale)” value in [10] is given as 4 (4=61-80%). Moreover, the “Pre-emergence Test ECHCG percentage damage (five point scale)” value in experiment [11] is recorded as 1 (1=0-20%). Moreover, in the experiment with Solanum nigrum (SOLNI) [12], the “Pre-emergence Test SOLNI percentage damage (five point scale)” value is 4 (4=61-80%).
